Data reported in US20230278972A1, “SUBSTITUTED HALOALKYL SULFONANILIDE HERBICIDES” (FMC Corporation, priority 2020, published 2023).

Experiments:
Format in all cases: in vivo
[1] = test system: galium (catchweed bedstraw, Galium aparine); assay: Test A postemergence, galium; settings: Postemergence, 0 to 100 scale (0 no effect, 100 complete control); for Plant response rating, Galium: 125 g ai/ha; for Galium plant response rating: 500 g ai/ha, visual injury vs untreated controls after approx. 10 days
How it was run: (§1)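 Test chemicals, formulated in a non-phytotoxic solvent mixture with surfactant, were sprayed postemergence on plants 2 to 10 cm tall at the one- to two-leaf stage. Preemergence treatment was a directed soil spray onto freshly seeded pots. Both used a loam soil and sand blend.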

[2] = test system: ragweed (common ragweed, Ambrosia artemisiifolia); assay: Test A preemergence, ragweed; settings: Preemergence, 0 to 100 scale (0 no effect, 100 complete control)
How it was run: (§2)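 Directed soil spray at planting gave the preemergence treatment, while foliar application to one- to two-leaf seedlings (2–10 cm) gave the postemergence one; pots held a loam and sand mixture and chemicals were carried in a non-phytotoxic solvent with surfactant.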

[3] = test system: ragweed (common ragweed, Ambrosia artemisiifolia); assay: Test A postemergence, ragweed; settings: Postemergence, 0 to 100 scale (0 no effect, 100 complete control); for Plant response rating, Ragweed: 125 g ai/ha; for Ragweed plant response rating: 500 g ai/ha, visual injury vs untreated controls after approx. 10 days
How it was run: as §2

[4] = test system: pigweed (Amaranthus retroflexus); assay: Test A postemergence, pigweed; settings: Postemergence, 0 to 100 scale (0 no effect, 100 complete control); for Plant response rating, Pigweed: 125 g ai/ha; for Pigweed plant response rating: 500 g ai/ha, visual injury vs untreated controls after approx. 10 days
How it was run: as §2

[5] = test system: Ryegrass, Italian (Italian ryegrass, Lolium multiflorum); assay: Test A preemergence, Ryegrass, Italian; settings: Preemergence, 0 to 100 scale (0 no effect, 100 complete control)
How it was run: as §2

kochia (Bassia scoparia) [6] = assay: Test A postemergence, kochia; settings: Postemergence, 0 to 100 scale (0 no effect, 100 complete control); for Plant response rating, Kochia: 125 g ai/ha; for Kochia plant response rating: 500 g ai/ha, visual injury vs untreated controls after approx. 10 days
How it was run: as §2

[7] = test system: wheat (Triticum aestivum); assay: Test A postemergence, wheat; settings: Postemergence, 0 to 100 scale (0 no effect, 100 complete control); for Plant response rating, Wheat: 125 g ai/ha; for Wheat plant response rating: 500 g ai/ha, visual injury vs untreated controls after approx. 10 days
How it was run: as §1

corn (Zea mays) = assay: Test A postemergence, corn; settings: Postemergence, 0 to 100 scale (0 no effect, 100 complete control); for Plant response rating, Corn: 125 g ai/ha; for Corn plant response rating: 500 g ai/ha, visual injury vs untreated controls after approx. 10 days
How it was run: as §2

[8] = test system: Ryegrass, Italian (Italian ryegrass, Lolium multiflorum); assay: Test A postemergence, Ryegrass, Italian; settings: Postemergence, 0 to 100 scale (0 no effect, 100 complete control); for Plant response rating, Ryegrass, Italian: 125 g ai/ha; for Ryegrass, Italian plant response rating: 500 g ai/ha, visual injury vs untreated controls after approx. 10 days
How it was run: as §2

[9] = test system: barnyardgrass (Echinochloa crus-galli); assay: Test A postemergence, barnyardgrass; settings: Postemergence, 0 to 100 scale (0 no effect, 100 complete control); for Plant response rating, Barnyardgrass: 125 g ai/ha; for Barnyardgrass plant response rating: 500 g ai/ha, visual injury vs untreated controls after approx. 10 days
How it was run: as §1

[10] = test system: blackgrass (Alopecurus myosuroides); assay: Test A postemergence, blackgrass; settings: Postemergence, 0 to 100 scale (0 no effect, 100 complete control); for Plant response rating, Blackgrass: 125 g ai/ha; for Blackgrass plant response rating: 500 g ai/ha, visual injury vs untreated controls after approx. 10 days
How it was run: as §2

[11] = test system: Foxtail, Giant (giant foxtail, Setaria faberi); assay: Test A preemergence, Foxtail, Giant; settings: Preemergence, 0 to 100 scale (0 no effect, 100 complete control)
How it was run: as §2

[12] = test system: pigweed (Amaranthus retroflexus); assay: Test A preemergence, pigweed; settings: 0 to 100 scale (0 no effect, 100 complete control)
How it was run: as §1

[13] = test system: barnyardgrass (Echinochloa crus-galli); assay: Test A preemergence, barnyardgrass; settings: Preemergence, 0 to 100 scale (0 no effect, 100 complete control)
How it was run: as §2

[14] = test system: Foxtail, Giant (giant foxtail, Setaria faberi); assay: Test A postemergence, Foxtail, Giant; settings: Postemergence, 0 to 100 scale (0 no effect, 100 complete control); for Plant response rating, Foxtail, Giant: 125 g ai/ha; for Foxtail, Giant plant response rating: 500 g ai/ha, visual injury vs untreated controls after approx. 10 days
How it was run: as §2

kochia (Bassia scoparia) [15] = assay: Test A preemergence, kochia; settings: Preemergence, 0 to 100 scale (0 no effect, 100 complete control)
How it was run: as §2

[16] = 125 g ai/ha, visual injury, approx. 10 days

Cc1c(NS(=O)(=O)C(F)(F)F)cc(C(=O)N2CCCCC2)c(C)c1F [Compound 191]
Plant response rating, Galium [1]: 70
Galium plant response rating [1]: 90
Plant response rating, Ragweed [2, 16]: 60
Plant response rating, Ragweed ([2]; 500 g ai/ha): 100
Plant response rating, Ragweed [3]: 20
Ragweed plant response rating [3]: 60
Plant response rating, Pigweed [4]: 20
Pigweed plant response rating [4]: 70
Plant response rating, Ryegrass, Italian [5, 16]: 70
Plant response rating, Ryegrass, Italian ([5]; 500 g ai/ha): 100
Plant response rating, Kochia (kochia (Bassia scoparia) [6]): 0
Kochia plant response rating (kochia (Bassia scoparia) [6]): 20
Plant response rating, Wheat [7]: 30
Wheat plant response rating [7]: 60
Plant response rating, Corn (corn (Zea mays)): 0
Corn plant response rating (corn (Zea mays)): 10
Plant response rating, Ryegrass, Italian [8]: 30
Ryegrass, Italian plant response rating [8]: 60
Plant response rating, Barnyardgrass [9]: 0
Barnyardgrass plant response rating [9]: 30
Plant response rating, Blackgrass [10]: 0
Blackgrass plant response rating [10]: 0
Plant response rating, Foxtail, Giant [11, 16]: 100
Plant response rating, Foxtail, Giant ([11]; 500 g ai/ha): 100
Plant response rating, Pigweed [12, 16]: 100
Plant response rating, Pigweed ([12]; 500 g ai/ha): 100
Plant response rating, Barnyardgrass [13, 16]: 100
Plant response rating, Barnyardgrass ([13]; 500 g ai/ha): 100
Plant response rating, Foxtail, Giant [14]: 0
Foxtail, Giant plant response rating [14]: 20
Plant response rating, Kochia (kochia (Bassia scoparia) [15]; [16]): 90
Plant response rating, Kochia (kochia (Bassia scoparia) [15]; 500 g ai/ha): 90

Cc1cc(C)c(C(=O)N2CCC3(CC2)OCCCO3)cc1NS(=O)(=O)C(F)(F)F [Compound 194]
Plant response rating, Galium [1]: 70
Galium plant response rating [1]: 90
Plant response rating, Ragweed [2, 16]: 80
Plant response rating, Ragweed ([2]; 500 g ai/ha): 90
Plant response rating, Ragweed [3]: 60
Ragweed plant response rating [3]: 90
Plant response rating, Pigweed [4]: 0
Pigweed plant response rating [4]: 50
Plant response rating, Ryegrass, Italian [5, 16]: 30
Plant response rating, Ryegrass, Italian ([5]; 500 g ai/ha): 100
Plant response rating, Kochia (kochia (Bassia scoparia) [6]): 20
Kochia plant response rating (kochia (Bassia scoparia) [6]): 40
Plant response rating, Wheat [7]: 0
Wheat plant response rating [7]: 60
Plant response rating, Corn (corn (Zea mays)): 0
Corn plant response rating (corn (Zea mays)): 0
Plant response rating, Ryegrass, Italian [8]: 0
Ryegrass, Italian plant response rating [8]: 50
Plant response rating, Barnyardgrass [9]: 0
Barnyardgrass plant response rating [9]: 80
Plant response rating, Blackgrass [10]: 0
Blackgrass plant response rating [10]: 0
Plant response rating, Foxtail, Giant [11, 16]: 80
Plant response rating, Foxtail, Giant ([11]; 500 g ai/ha): 100
Plant response rating, Pigweed [12, 16]: 90
Plant response rating, Pigweed ([12]; 500 g ai/ha): 100
Plant response rating, Barnyardgrass [13, 16]: 90
Plant response rating, Barnyardgrass ([13]; 500 g ai/ha): 90
Plant response rating, Foxtail, Giant [14]: 10
Foxtail, Giant plant response rating [14]: 80
Plant response rating, Kochia (kochia (Bassia scoparia) [15]; [16]): 40
Plant response rating, Kochia (kochia (Bassia scoparia) [15]; 500 g ai/ha): 90

Cc1cc(C)c(C(=O)N2CCC3(CCCCC3)CC2)cc1NS(=O)(=O)C(F)(F)F [Compound 195]
Plant response rating, Galium [1]: 10
Galium plant response rating [1]: 20
Plant response rating, Ragweed [2, 16]: 0
Plant response rating, Ragweed ([2]; 500 g ai/ha): 0
Plant response rating, Ragweed [3]: 0
Ragweed plant response rating [3]: 50
Plant response rating, Pigweed [4]: 0
Pigweed plant response rating [4]: 0
Plant response rating, Ryegrass, Italian [5, 16]: 20
Plant response rating, Ryegrass, Italian ([5]; 500 g ai/ha): 90
Plant response rating, Kochia (kochia (Bassia scoparia) [6]): 0
Kochia plant response rating (kochia (Bassia scoparia) [6]): 0
Plant response rating, Wheat [7]: 0
Wheat plant response rating [7]: 0
Plant response rating, Corn (corn (Zea mays)): 20
Corn plant response rating (corn (Zea mays)): 0
Plant response rating, Ryegrass, Italian [8]: 0
Ryegrass, Italian plant response rating [8]: 0
Plant response rating, Barnyardgrass [9]: 0
Barnyardgrass plant response rating [9]: 0
Plant response rating, Blackgrass [10]: 0
Blackgrass plant response rating [10]: 0
Plant response rating, Foxtail, Giant [11, 16]: 70
Plant response rating, Foxtail, Giant ([11]; 500 g ai/ha): 90
Plant response rating, Pigweed [12, 16]: 60
Plant response rating, Pigweed ([12]; 500 g ai/ha): 80
Plant response rating, Barnyardgrass [13, 16]: 60
Plant response rating, Barnyardgrass ([13]; 500 g ai/ha): 90
Plant response rating, Foxtail, Giant [14]: 0
Foxtail, Giant plant response rating [14]: 0
Plant response rating, Kochia (kochia (Bassia scoparia) [15]; [16]): 0
Plant response rating, Kochia (kochia (Bassia scoparia) [15]; 500 g ai/ha): 0

Cc1cc(Cl)c(NS(=O)(=O)C(F)(F)F)cc1C1=NOC(C)(C)C1 [Compound 203]
Plant response rating, Galium [1]: 80
Galium plant response rating [1]: 90
Plant response rating, Ragweed [2, 16]: 80
Plant response rating, Ragweed ([2]; 500 g ai/ha): 90
Plant response rating, Ragweed [3]: 70
Ragweed plant response rating [3]: 90
Plant response rating, Pigweed [4]: 20
Pigweed plant response rating [4]: 60
Plant response rating, Ryegrass, Italian [5, 16]: 50
Plant response rating, Ryegrass, Italian ([5]; 500 g ai/ha): 100
Plant response rating, Kochia (kochia (Bassia scoparia) [6]): 40
Kochia plant response rating (kochia (Bassia scoparia) [6]): 80
Plant response rating, Wheat [7]: 40
Wheat plant response rating [7]: 70
Plant response rating, Corn (corn (Zea mays)): 10
Corn plant response rating (corn (Zea mays)): 60
Plant response rating, Ryegrass, Italian [8]: 0
Ryegrass, Italian plant response rating [8]: 60
Plant response rating, Barnyardgrass [9]: 60
Barnyardgrass plant response rating [9]: 80
Plant response rating, Blackgrass [10]: 20
Blackgrass plant response rating [10]: 30
Plant response rating, Foxtail, Giant [11, 16]: 30
Plant response rating, Foxtail, Giant ([11]; 500 g ai/ha): 100
Plant response rating, Pigweed [12, 16]: 60
Plant response rating, Pigweed ([12]; 500 g ai/ha): 100
Plant response rating, Barnyardgrass [13, 16]: 90
Plant response rating, Barnyardgrass ([13]; 500 g ai/ha): 90
Plant response rating, Foxtail, Giant [14]: 0
Foxtail, Giant plant response rating [14]: 50
Plant response rating, Kochia (kochia (Bassia scoparia) [15]; [16]): 60
Plant response rating, Kochia (kochia (Bassia scoparia) [15]; 500 g ai/ha): 90

Cc1cc(Cl)c(NS(=O)(=O)C(F)(F)F)cc1C1=NOC2(CCCC2)C1 [Compound 204]
Plant response rating, Galium [1]: 50
Galium plant response rating [1]: 80
Plant response rating, Ragweed [2, 16]: 10
Plant response rating, Ragweed ([2]; 500 g ai/ha): 90
Plant response rating, Ragweed [3]: 20
Ragweed plant response rating [3]: 80
Plant response rating, Pigweed [4]: 20
Pigweed plant response rating [4]: 70
Plant response rating, Ryegrass, Italian [5, 16]: 90
Plant response rating, Ryegrass, Italian ([5]; 500 g ai/ha): 100
Plant response rating, Kochia (kochia (Bassia scoparia) [6]): 30
Kochia plant response rating (kochia (Bassia scoparia) [6]): 70
Plant response rating, Wheat [7]: 50
Wheat plant response rating [7]: 70
Plant response rating, Corn (corn (Zea mays)): 10
Corn plant response rating (corn (Zea mays)): 50
Plant response rating, Ryegrass, Italian [8]: 40
Ryegrass, Italian plant response rating [8]: 50
Plant response rating, Barnyardgrass [9]: 0
Barnyardgrass plant response rating [9]: 80
Plant response rating, Blackgrass [10]: 0
Blackgrass plant response rating [10]: 40
Plant response rating, Foxtail, Giant [11, 16]: 80
Plant response rating, Foxtail, Giant ([11]; 500 g ai/ha): 100
Plant response rating, Pigweed [12, 16]: 90
Plant response rating, Pigweed ([12]; 500 g ai/ha): 100
Plant response rating, Barnyardgrass [13, 16]: 90
Plant response rating, Barnyardgrass ([13]; 500 g ai/ha): 90
Plant response rating, Foxtail, Giant [14]: 10
Foxtail, Giant plant response rating [14]: 60
Plant response rating, Kochia (kochia (Bassia scoparia) [15]; [16]): 40
Plant response rating, Kochia (kochia (Bassia scoparia) [15]; 500 g ai/ha): 90
